From patent publication US8642008B2, “Molecular probe for imaging of pancreatic islets and use of the same” (priority 2009, dated 2014)

Assays:
[1] = test system: GLP-1R-positive tumor cells; conditions: cited from earlier work
[2] = test system: pancreatic islets; conditions: cited from earlier work
[3] = mouse, iv
Experimental: (§1) At points of 5 minutes, 15 minutes, 30 minutes, 60 minutes, and 120 minutes after the administration, organs were dissected out of the mice, respectively (n=5). The weight and the radioactivity of each organ were determined, and an accumulation amount (% dose/g) of the molecular probe was calculated from the radioactivity per unit weight. […] FIG. 1A is a graph showing how the accumulation of the molecular probe in each organ varied with time, and FIG. 1B is a graph of an enlarged part of FIG. 1A.
1, biodistribution of the same in a mouse was determined. […] The determination of biodistribution was carried out in the same manner as that in Example 1.
as §1, with “5A” for “1A”, “5B” for “1B”, “5A.” for “FIG. 1A.”

[4] = test system: pancreatic β-cells; assay: Two-dimensional imaging analysis of pancreas sections of MIP-GFP mice (fluorescence and autoradiography); assay type: in vivo, mouse
Experimental: Two-dimensional imaging analysis was performed using transgenic mice that have a genetic background of C57BL/6 mice and express GFP (green fluorescent protein) under regulation of MIP (mouse insulin I gene promoter) (hereinafter these mice are referred to as “MIP-GFP mice”). […] Sections were cut out of the dissected pancreases, and each section was placed on a slide glass, covered with a cover glass. Fluorescence and radioactivity (autoradiography) of each section were determined using an image analyzer (trade name: Typhoon 9410, produced by GE Health Care Inc.) (exposure time: 14 hours).
Sections were cut out of the dissected pancreases, and fluorescence and radioactivity of each section were determined in the same manner as described above.
DPP (dipeptidyl peptidase) IV inhibitor (0.1 mL of 6 mg/mL solution) was administered by intravenous injection to unanesthetized MIP-GFP mice (male, weight: 20 g), and these mice were used as controls 1-2. […] Sections were cut out of the dissected pancreases, and fluorescence and radioactivity of each section were determined in the same manner as described above. […]
Sections were cut out of the dissected pancreases, and fluorescence and radioactivity of each section thus obtained were determined in the same manner as described above.

In the case of Lys^40(Ahx-DTPA-^111In)Exendin-(9-39), the “uptake in the GLP-1R-positive tumor cells” value [1] is listed as “about 7.5%” and the “uptake in pancreatic islets” value [2] is listed as “about 0.4%”.
With “formula (35): exendin(9-39) sequence, α-amino group at N-terminus labeled with [125I] 3-iodobenzoyl group, C-terminus amidated” the “accumulation amount in the pancreas, times as much as that in the intestine” value ([3]; in vivo) was “not less than 11 times”, the “accumulation amount in the pancreas, times as much as that in the stomach” value ([3]; in vivo) was “not less than 3 times” and the “change with time of accumulation in the thyroid gland (deiodization metabolism in vivo)” value [3] was “no great change”. The “localization of the radioactivity signal versus GFP signal in pancreas sections” value ([4]; 30 and 60 minutes after administration) was “consistent with that of the GFP signal” and the “radioactivity signal of pancreas sections after preliminary administration of cold probe exendin(9-39)” value ([4]; 30 minutes after probe) was “substantially no radioactivity signal was detected”.
